Reference: the supplement of paper PMC11451515

Legend:
Conditions in all cases: 48 h
NOMO1 [1] = assay: cell viability relative to DMSO control; higher = less cytotoxic
Outline: (§1)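 Viability was expressed as a per-plate percentage of DMSO wells, with cell-free wells as background. Leukemia cells (NOMO1 or SEM at 500 cells/well, P12-Ichikawa at 1000 cells/well) were adapted for at least four passages in each medium and seeded in 1536-well plates (5 μl). Library compounds in DMSO were pin-dosed over an 11-point threefold series from 47 μM to 0.79 nM, and CellTiter-Glo One luminescence was read after 48 h at 37°C.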

P12-Ichikawa [2] = assay: as above
Outline: as §1

SEM cells [3] = assay: as above
Outline: as §1

NOMO1 [4] = assay: AUC of viability dose-response curve (% viability x log10 dose units); higher = less sensitive
Outline: (§2)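 Leukemia cells adapted to each medium (500 or 1000 cells/well, 1536-well plates) were exposed to library compounds in DMSO for 48 h at 37°C at 11 threefold doses, 47 μM to 0.79 nM. Luminescence by CellTiter-Glo One was normalised per plate to DMSO and cell-free wells, then fitted with a four-parameter log-logistic curve on log10 dose. Curves above full viability were scaled and quality-control failures removed before area under the curve was integrated by trapezoidal rule.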

P12-Ichikawa [5] = assay: as above
Outline: as §2

SEM cells [6] = assay: as above
Outline: as §2

COc1ccc(C[C@@H](C)[C@@H](C)Cc2ccc(OC)c(OC)c2)cc1OC
cell viability [%]
Conditions | NOMO1 [1] | P12-Ichikawa [2] | SEM cells [3]
HPLM + 10% dialyzed FBS, 0.000781 µM | 92.1 | 92.6 | 73.5
HPLM + 10% dialyzed FBS, 0.00234 µM | 94.8 | 105 | 93.2
HPLM + 10% dialyzed FBS, 0.00702 µM | 107 | 102 | 85.2
HPLM + 10% dialyzed FBS, 0.0211 µM | 112 | 110 | 92.7
HPLM + 10% dialyzed FBS, 0.0632 µM | 93.5 | 99.4 | 96
HPLM + 10% dialyzed FBS, 0.19 µM | 75.5 | 102 | 94.9
HPLM + 10% dialyzed FBS, 0.569 µM | 68 | 97.7 | 91.8
HPLM + 10% dialyzed FBS, 1.71 µM | 53.7 | 83 | 83.2
HPLM + 10% dialyzed FBS, 5.12 µM | 16.6 | 6.15 | 19
HPLM + 10% dialyzed FBS, 15.4 µM | 17.8 | 5.92 | 16.3
HPLM + 10% dialyzed FBS, 46.1 µM | 13.8 | 2.61 | 8.54
RPMI 5 mM glucose + 10% FBS, 0.000781 µM | 87.3 | 97 | 80.6
RPMI 5 mM glucose + 10% FBS, 0.00234 µM | 93.7 | 103 | 104
RPMI 5 mM glucose + 10% FBS, 0.00702 µM | 88.6 | 98.3 | 102
RPMI 5 mM glucose + 10% FBS, 0.0211 µM | 100 | 110 | 111
RPMI 5 mM glucose + 10% FBS, 0.0632 µM | 86.3 | 111 | 106
RPMI 5 mM glucose + 10% FBS, 0.19 µM | 85.1 | 99.7 | 120
RPMI 5 mM glucose + 10% FBS, 0.569 µM | 74.9 | 92.4 | 93.3
RPMI 5 mM glucose + 10% FBS, 1.71 µM | 71.6 | 81 | 82.4
RPMI 5 mM glucose + 10% FBS, 5.12 µM | 8.17 | 4.82 | 18.7
RPMI 5 mM glucose + 10% FBS, 15.4 µM | 6.56 | 4.04 | 16.7
RPMI 5 mM glucose + 10% FBS, 46.1 µM | 5.76 | 2.42 | 4.5
RPMI 5 mM glucose + 10% dialyzed FBS, 0.000781 µM | 84 | 95.4 | 76.3
RPMI 5 mM glucose + 10% dialyzed FBS, 0.00234 µM | 80.2 | 102 | 97.7
RPMI 5 mM glucose + 10% dialyzed FBS, 0.00702 µM | 97.4 | 105 | 88.9
RPMI 5 mM glucose + 10% dialyzed FBS, 0.0211 µM | 97.6 | 107 | 91.7
RPMI 5 mM glucose + 10% dialyzed FBS, 0.0632 µM | 95.3 | 104 | 88.9
RPMI 5 mM glucose + 10% dialyzed FBS, 0.19 µM | 89.6 | 90.6 | 83.7
RPMI 5 mM glucose + 10% dialyzed FBS, 0.569 µM | 82.4 | 93.4 | 81.1
RPMI 5 mM glucose + 10% dialyzed FBS, 1.71 µM | 69.2 | 81.9 | 74
RPMI 5 mM glucose + 10% dialyzed FBS, 5.12 µM | 21.4 | 6.68 | 18.3
RPMI 5 mM glucose + 10% dialyzed FBS, 15.4 µM | 11.1 | 4.98 | 14.9
RPMI 5 mM glucose + 10% dialyzed FBS, 46.1 µM | 7.7 | 2.21 | 4

AUC of viability dose-response curve
Conditions | NOMO1 [4] | P12-Ichikawa [5] | SEM cells [6]
HPLM + 10% dialyzed FBS | 326 | 355 | 336
RPMI 5 mM glucose + 10% FBS | 315 | 353 | 364
RPMI 5 mM glucose + 10% dialyzed FBS | 328 | 354 | 320

CC(NC1=CC=CC=C1)C\2=C\C(=C/N3C(=O)\C=C(/N=C23)N4CCOCC4)C (centres undefined)
cell viability [%]
Conditions | NOMO1 [1] | P12-Ichikawa [2] | SEM cells [3]
HPLM + 10% dialyzed FBS, 0.000781 µM | 91.6 | 101 | 96.9
HPLM + 10% dialyzed FBS, 0.00234 µM | 106 | 100 | 86.4
HPLM + 10% dialyzed FBS, 0.00702 µM | 115 | 107 | 108
HPLM + 10% dialyzed FBS, 0.0211 µM | 105 | 110 | 99.1
HPLM + 10% dialyzed FBS, 0.0632 µM | 114 | 109 | 101
HPLM + 10% dialyzed FBS, 0.19 µM | 117 | 110 | 108
HPLM + 10% dialyzed FBS, 0.569 µM | 125 | 115 | 107
HPLM + 10% dialyzed FBS, 1.71 µM | 118 | 115 | 108
HPLM + 10% dialyzed FBS, 5.12 µM | 108 | 110 | 103
HPLM + 10% dialyzed FBS, 15.4 µM | 99.6 | 106 | 97.3
HPLM + 10% dialyzed FBS, 46.1 µM | 87.6 | 101 | 86.5
RPMI 5 mM glucose + 10% FBS, 0.000781 µM | 92.7 | 95.9 | 99.1
RPMI 5 mM glucose + 10% FBS, 0.00234 µM | 96.3 | 98 | 101
RPMI 5 mM glucose + 10% FBS, 0.00702 µM | 97.7 | 97.4 | 117
RPMI 5 mM glucose + 10% FBS, 0.0211 µM | 109 | 98.1 | 126
RPMI 5 mM glucose + 10% FBS, 0.0632 µM | 109 | 102 | 103
RPMI 5 mM glucose + 10% FBS, 0.19 µM | 102 | 110 | 101
RPMI 5 mM glucose + 10% FBS, 0.569 µM | 115 | 115 | 128
RPMI 5 mM glucose + 10% FBS, 1.71 µM | 99.8 | 113 | 119
RPMI 5 mM glucose + 10% FBS, 5.12 µM | 108 | 101 | 117
RPMI 5 mM glucose + 10% FBS, 15.4 µM | 105 | 112 | 101
RPMI 5 mM glucose + 10% FBS, 46.1 µM | 108 | 102 | 12.2
RPMI 5 mM glucose + 10% dialyzed FBS, 0.000781 µM | 95.7 | 88.6 | 95.3
RPMI 5 mM glucose + 10% dialyzed FBS, 0.00234 µM | 92.9 | 93.6 | 79.7
RPMI 5 mM glucose + 10% dialyzed FBS, 0.00702 µM | 111 | 114 | 113
RPMI 5 mM glucose + 10% dialyzed FBS, 0.0211 µM | 110 | 110 | 106
RPMI 5 mM glucose + 10% dialyzed FBS, 0.0632 µM | 105 | 99.1 | 94.3
RPMI 5 mM glucose + 10% dialyzed FBS, 0.19 µM | 116 | 115 | 73.8
RPMI 5 mM glucose + 10% dialyzed FBS, 0.569 µM | 109 | 110 | 101
RPMI 5 mM glucose + 10% dialyzed FBS, 1.71 µM | 108 | 116 | 110
RPMI 5 mM glucose + 10% dialyzed FBS, 5.12 µM | 94.7 | 105 | 98.3
RPMI 5 mM glucose + 10% dialyzed FBS, 15.4 µM | 96.7 | 106 | 87.3
RPMI 5 mM glucose + 10% dialyzed FBS, 46.1 µM | 83 | 111 | 53.8

AUC of viability dose-response curve
Conditions | NOMO1 [4] | P12-Ichikawa [5] | SEM cells [6]
HPLM + 10% dialyzed FBS | 466 | 470 | 475
RPMI 5 mM glucose + 10% FBS | 451 | 456 | 451
RPMI 5 mM glucose + 10% dialyzed FBS | 462 | 466 | 447

Cn1c(=O)c2c(ncn2C)n(C)c1=O.O=C(O)CC(O)(CC(=O)O)C(=O)O
cell viability [%]
Conditions | NOMO1 [1] | P12-Ichikawa [2] | SEM cells [3]
HPLM + 10% dialyzed FBS, 0.000781 µM | 118 | 108 | 124
HPLM + 10% dialyzed FBS, 0.00234 µM | 106 | 106 | 117
HPLM + 10% dialyzed FBS, 0.00702 µM | 123 | 112 | 110
HPLM + 10% dialyzed FBS, 0.0211 µM | 133 | 111 | 111
HPLM + 10% dialyzed FBS, 0.0632 µM | 105 | 111 | 112
HPLM + 10% dialyzed FBS, 0.19 µM | 114 | 113 | 128
HPLM + 10% dialyzed FBS, 0.569 µM | 100 | 105 | 118
HPLM + 10% dialyzed FBS, 1.71 µM | 104 | 105 | 114
HPLM + 10% dialyzed FBS, 5.12 µM | 98.9 | 96.8 | 122
HPLM + 10% dialyzed FBS, 15.4 µM | 86 | 101 | 121
HPLM + 10% dialyzed FBS, 46.1 µM | 109 | 93.1 | 106
RPMI 5 mM glucose + 10% FBS, 0.000781 µM | 95.4 | 116 | 117
RPMI 5 mM glucose + 10% FBS, 0.00234 µM | 98.9 | 119 | 107
RPMI 5 mM glucose + 10% FBS, 0.00702 µM | 107 | 126 | 112
RPMI 5 mM glucose + 10% FBS, 0.0211 µM | 101 | 126 | 107
RPMI 5 mM glucose + 10% FBS, 0.0632 µM | 115 | 121 | 117
RPMI 5 mM glucose + 10% FBS, 0.19 µM | 104 | 117 | 106
RPMI 5 mM glucose + 10% FBS, 0.569 µM | 106 | 115 | 115
RPMI 5 mM glucose + 10% FBS, 1.71 µM | 106 | 116 | 96.1
RPMI 5 mM glucose + 10% FBS, 5.12 µM | 101 | 120 | 103
RPMI 5 mM glucose + 10% FBS, 15.4 µM | 91.2 | 110 | 110
RPMI 5 mM glucose + 10% FBS, 46.1 µM | 93.8 | 107 | 89.7
RPMI 5 mM glucose + 10% dialyzed FBS, 0.000781 µM | 93.8 | 106 | 113
RPMI 5 mM glucose + 10% dialyzed FBS, 0.00234 µM | 113 | 114 | 114
RPMI 5 mM glucose + 10% dialyzed FBS, 0.00702 µM | 109 | 110 | 120
RPMI 5 mM glucose + 10% dialyzed FBS, 0.0211 µM | 106 | 111 | 123
RPMI 5 mM glucose + 10% dialyzed FBS, 0.0632 µM | 114 | 110 | 112
RPMI 5 mM glucose + 10% dialyzed FBS, 0.19 µM | 107 | 109 | 124
RPMI 5 mM glucose + 10% dialyzed FBS, 0.569 µM | 119 | 105 | 115
RPMI 5 mM glucose + 10% dialyzed FBS, 1.71 µM | 98.6 | 114 | 114
RPMI 5 mM glucose + 10% dialyzed FBS, 5.12 µM | 97.3 | 113 | 117
RPMI 5 mM glucose + 10% dialyzed FBS, 15.4 µM | 89.2 | 106 | 124
RPMI 5 mM glucose + 10% dialyzed FBS, 46.1 µM | 85.4 | 96.3 | 112

AUC of viability dose-response curve
Conditions | NOMO1 [4] | P12-Ichikawa [5] | SEM cells [6]
HPLM + 10% dialyzed FBS | 439 | 459 | 472
RPMI 5 mM glucose + 10% FBS | 465 | 462 | 456
RPMI 5 mM glucose + 10% dialyzed FBS | 455 | 472 | 475
